Data: US8324188B2, “Combinations of ET-18-O-CH3and anti-cancer agents for the treatment of cancer” (priority 2006, dated 2012)
“And” between values parts separate entries of the source, which are not always exact repeats. Identical values can stand only once.

Legend:
U118MG = experiment: WST-1 proliferation assay, U118MG; format: cell-based, human
Experimental: (§1) AP-121 was prepared as 5 mM stock solution in distilled sterile water, Temozolomide (TMZ) (Haorui Pharma-Chem, Inc., Edison, N.J.) was prepared as 100 mM in sterile filtrated DMSO; Adriamycin (ADR) (Sigma) was prepared as 1 mM in distilled sterile water; Camptothecin (CTP) (Sigma) was prepared as 10 mM solution in 0.1 N NaOH; Tarceva (Proteinkinase, Germany) was prepared as 5 mM solution in sterile DMSO. All compound stocks were kept at −20° C. 2000 cells were plated in each well of 96-well flat bottom plates, and incubated overnight at 37 °C in 5% CO2. The growth of plated cells was measured by adding […] of WST-1 reagent (Roche Applied Sciences, Germany) to 3 control wells and measuring the absorbance at 650 nm and at 450 nm, respectively, with a SpectraMax250 plate reader. […] After this incubation, VVST-1 reagent was added to the wells and OD650-OD450 values were calculated as before. six wells were assayed for each conditions and standard deviation was determined: all experiments were performed at least three times independently. […] Six different concentrations of each drug were used in combinations index measurements and compared to +/− cells, and compared to controls without compound. Each combination was repeated 6 times at 2 different time points (24 and 96 hours), each of the above experiments was repeated 3 times to obtain valid results.

T98G = experiment: WST-1 proliferation assay, T98G; format: cell-based; conditions: Homo sapiens
Experimental: as §1, with “compound.” for “compound. Each combination was repeated 6 times at 2 different time points (24 and 96 hours), each of the above experiments was repeated 3 times to obtain valid results.”

A549 (FAS negative) = experiment: WST-1 proliferation assay, A549; format: cell-based, human; conditions: single agent, per experiment line
Experimental: (§2) 2000 cells were plated in each well of 96-well flat bottom plates, and incubated overnight at 37 °C in 5% CO2. The growth of plated cells was measured by adding […] of WST-1 reagent (Roche Applied Sciences, Germany) to 3 control wells and measuring the absorbance at 650 nm and at 450 nm, respectively, with a SpectraMax250 plate reader. […] After this incubation, VVST-1 reagent was added to the wells and OD650-OD450 values were calculated as before. six wells were assayed for each conditions and standard deviation was determined: all experiments were performed at least three times independently. […] DDP and GMZ were both purchased from Sigma-aldrich Corp., St. Louis, Mo., USA. The following cell lines were used: A549 (FAS negative), NCI-H460 (FAS positive), and HCC827 (FAS positive), all obtained from the ATTC, Rockville, Md., USA.

NCI-H460 (FAS positive) = experiment: WST-1 proliferation assay, NCI-H460; format: cell-based, human; conditions: single agent, per experiment line
Experimental: as §2

HeLa = conditions: mean ± SD from three independent experiments, read-out: ED50 values for induction of apoptosis; cited from earlier work
HMEC1 endothelial cells = conditions: cited from earlier work

IC50 (A549 (FAS negative); A549): 6 µM and 6.9 µM
IC50 (A549 (FAS negative); Homo sapiens, A549, A549): 8 µM
IC50 (NCI-H460 (FAS positive); Homo sapiens, NCI-H460, NCI-H460): 1.5 µM
IC50 (NCI-H460 (FAS positive); NCI-H460): 1.4 µM and 2 µM
Structure (SMILES): CCCCCCCCCCCCCCCCCCOCC(COP(=O)([O-])OCC[N+](C)(C)C)OC (racemic) [AP-121, 1-O-octadecyl-2-O-methyl-glycero-3-phosphocholine]
IC50 (U118MG; Homo sapiens, U-118-MG): 3.6 µM
EC50 (U118MG; Homo sapiens, U-118-MG, single agent or compound mixture as labelled (arrays A2, A1), read-out: ED50 (the source's name)): 4.8 µM
normalized ED50 (arrays B2, B1) (U118MG; ratio to the largest value): 0.71
IC50 (T98G): 4.1 µM
EC50 (HeLa): 5.17 ± 1.6 µM
anti-angiogenic activity (HMEC1 endothelial cells): 60 nM
